Several values for one entry are separate records, joined by “and”; a condition that tells them apart may be missing. Equal values may be shown once.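 Results reflect a 48-hour exposure of cells in 96-well plates to compound at five concentrations. Here, GI50 denotes the concentration required for 50% inhibition of growth. Definition used: TGI = concentration required for complete inhibition of growth.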
Legend:
Experiment in all cases: growth of human tumour cells (NCI), 48 h
[1] = tested on: EKVX NSCLC
[2] = tested on: HOP-62 NSCLC
[3] = tested on: K-562 leukemia
[4] = tested on: MALME-3M melanoma
[5] = tested on: MCF7 breast
[6] = tested on: MOLT-4 leukemia
[7] = tested on: NCI-H460 lung
[8] = tested on: NCI-H522 lung
[9] = tested on: OVCAR-5 ovarian
[10] = tested on: SK-OV-3 ovarian
[11] = tested on: SNB-19 CNS

| SMILES | TGI [1] [µM] | TGI [2] | TGI [3] | TGI [4] [µM] | TGI [5] [µM] | TGI [6] | TGI [7] | TGI [8] | TGI [9] | TGI [10] | TGI [11] | GI50 [1] [µM] | GI50 [2] [µM] | GI50 [3] [µM] | GI50 [6] [µM] | GI50 [8] [µM] | GI50 [9] [µM] | GI50 [10] [µM] | GI50 [11] [µM] |
| --- | --- | --- | --- | --- | --- | --- | --- | --- | --- | --- | --- | --- | --- | --- | --- | --- | --- | --- | --- |
| COc1ccccc1NS(=O)(=O)c1ccc2ncn(NS(=O)(=O)c3ccc(Cl)cc3)c(=O)c2c1 | > 100 | > 100 µM | > 100 µM | > 100 | > 100 | > 100 µM | > 100 µM | > 100 µM | > 100 µM | > 100 µM | > 100 µM | – | – | – | – | – | – | – | – |
| C=CC(Br)(CBr)CCC(Br)C(C)C (stereo not given) | 32.3 | 9.71 µM | 6.94 µM | 28.1 | 3.75 | 5.21 µM | 18.4 µM | 3.46 µM | 29.6 µM | 30.2 µM | 23.4 µM | – | – | – | – | – | – | – | – |
| Cc1nc2c(=O)[nH]c3ccc(Cl)cc3c2o1 | > 100 | > 100 µM | > 100 µM | > 100 | > 100 | > 100 µM | > 100 µM | > 100 µM | > 100 µM | > 100 µM | > 100 µM | – | – | – | – | – | – | – | – |
| CC(=O)C1(O)Cc2c(O)c3c(c(O)c2C(OC2CC(N)C(O)C(C)O2)C1)C(=O)c1ccccc1C3=O (stereo not given) | 0.811 | 0.275 µM and 0.118 µM | 0.78 µM and 0.716 µM | 0.0666 | 1.5 | 0.0122 µM and < 0.109 µM | 0.0836 µM and 0.0123 µM | 0.119 µM and 0.0672 µM | 0.842 µM and 0.23 µM | 0.788 µM and 0.129 µM | 0.97 µM and 0.156 µM | 0.0826 | < 0.0126 | < 0.0109 | 0.00182 | 0.0183 | 0.0261 | < 0.0129 | < 0.0122 |
| CCOP(=O)(OCC)C(Nc1ccc(F)cc1)c1ccccc1 (stereo not given) | > 100 | > 100 µM | > 100 µM | > 100 | > 100 | > 100 µM | > 100 µM | > 100 µM | > 100 µM | > 100 µM | > 100 µM | – | – | – | – | – | – | – | – |
| CCCC1(N)CC(OC)OC(C)C1O (stereo not given) | > 100 | > 100 µM | > 100 µM | > 100 | > 100 | > 100 µM | > 100 µM | > 100 µM | > 100 µM | > 100 µM | > 100 µM | – | – | – | – | – | – | – | – |
| OC(CN1CCCCC1)c1ccc(/C=C/c2ccc(Cl)cc2)cc1 (stereo not given) | > 100 | > 100 µM | > 100 µM | > 100 | > 100 | > 100 µM | > 100 µM | 72.7 µM | > 100 µM | > 100 µM | > 100 µM | – | – | – | – | – | – | – | – |
